Earlier results, collected in US20030040489A1, “Process for producing l-arabinose, l-arabinose-containing enzymatically processed products, diet foods, diabetic diet foods and fruit or vegetable juices and process for producting the same” (priority 1999, published 2003).

System: disaccharide-decomposing enzymes (maltase, sucrase, etc.)
Conditions: enzymes of duodenal and small intestinal mucosae

mode of inhibition of disaccharide-decomposing enzymes: uncompetitively inhibits
SMILES: O=C[C@H](O)[C@@H](O)[C@@H](O)CO [L-arabinose]
